From patent US20260207633A1, “COMPOSITION COMPRISING POLAR LIPIDS AND METHOD OF MAKING SAME” (VAXA TECHNOLOGIES LTD, priority 2021, published 2026)

Legend:
[1] = system: individuals with insomnia; conditions: cited from earlier work
[2] = system: participants with poor sleeping quality (PSQI 11-13); assay: Sleep quality tracked monthly with the Pittsburgh Sleep Quality Index (PSQI), 6 groups of 3 participants; format: in vivo, human; conditions: for PSQI M3: global PSQI score at month 3; for PSQI M3 / PSQI M4: With CBD (daily dosage per group, the 2nd table r16-r22); for PSQI M4: global PSQI score at month 4; for ΔPSQI (%): improvement of PSQI from M0 to M4
Protocol: Some experiment showing the effect of the combination of CBD and four different omega-3 compounds (Fish Oil (Non-polar DHA+EPA), Fish oil (Non-polar EPA), Schizochytrium Oil (Non-Polar DHA), Nannochloropsis Oil (polar EPA)) were conducted. Daily dosage of omega 3 (DHA and/or EPA) was […].
Materials: CBD: Fish oil (non-polar DHA+EPA), Schizochytrium Oil (non-polar DHA), Nannochloropsis Oil (polar-EPA), Fish oil (non-polar EPA).
Experimental Design: Sleep quality was the measured in this study, as an efficacy indication. The experiment included 6 groups (3 participants per group) 8 women and 10 men, with similar Pittsburgh Sleep Quality Index (PSQI) rating (11-13), indicating poor sleeping quality. The average age for the participants was 37.2. All 18 participants completed sleep assessments at the onset of CBD treatment and at the monthly follow-ups.
All participants were given CBD and/or Omega 3 every evening, after dinner, per table 1 below. Sleep quality was tracked on a monthly basis, for a period of up to 4 months, using the PSQI. This Index is a self-report measure that assesses the quality of sleep during a 1-month period. […] The PSQI measures several different aspects of sleep, offering seven component scores and one composite score. The component scores consist of subjective sleep quality, sleep latency (i.e., how long it takes to fall asleep), sleep duration, habitual sleep efficiency (i.e., the percentage of time in bed that one is asleep), sleep disturbances, use of sleeping medication, and daytime dysfunction.
Each item is weighted on a 0-3 interval scale. The global PSQI score was calculated by totaling the seven component scores, providing an overall score ranging from 0 to 21, where lower scores denote a healthier sleep quality. A higher number indicates more sleep-related concerns. A score of 5 or greater indicates a “poor sleeper”.

SMILES | frequency of arousals during the night ([1]; high-dose (160 mg/day) CBD) | total sleep time ([1]; high-dose (160 mg/day) CBD) | wakefulness ([1]; low-dose CBD) | effect on PSQI score / sleep quality, in words ([2]; comparison between groups) | PSQI M3 [2] | PSQI M4 [2] | ΔPSQI (%) [2] | Sedation ([2]; sedation effect Y/N during CBD treatment, listed as High-dose CBD) | improvement of PSQI score, months 3-4 ([2]; months with CBD)
C=C(C)[C@@H]1CCC(C)=C[C@H]1c1c(O)cc(CCCCC)cc1O [CBD, Cannabidiol] | decreased the frequency of arousals during the night | increased total sleep time | increased wakefulness | – | – | – | – | – | –
C=C(C)[C@@H]1CCC(C)=C[C@H]1c1c(O)cc(CCCCC)cc1O [Group A, Cannabidiol] | – | – | – | more efficient that low-dose CBD in improving PSQI score | 6.7 | 4.6 | 62% | had a sedation effect | –
C=C(C)[C@@H]1CCC(C)=C[C@H]1c1c(O)cc(CCCCC)cc1O [Group B, Cannabidiol] | – | – | – | – | 11.3 | 9.3 | 24% | – | ~ 18%
